Results as given in US8440615B2, “Pharmaceutical and/or cosmetic composition containing active-principle activators of aconitase” (Societe d'Extraction des Principes Actifs (Vincience), priority 2007, dated 2013).
Residues, ends and D or L forms follow the SMILES beside them.

Tests used:
[1] = tested on: aconitase; test: Total (cytoplasmic and mitochondrial) enzymatic activity of aconitase in fibroblasts, Bioxytech Aconitase-340 kit; assay type: cell-based, human
Description: (§1) The aim of this study was to determine the effect of the SEQ ID No. 2 peptide on the enzymatic activity of aconitase. For this, the total enzymatic activity (cytoplasmic and mitochondrial) and the mitochondrial enzymatic activity of aconitase were measured.
Protocol: Normal human fibroblasts were treated with a 1% solution of a 50-ppm SEQ ID No. 2 peptide representative of the peptide family according to the invention, for 48 hr, and were then subjected to UVB radiation of 100 mJ/cm^2. After irradiation, the cells were treated under the same conditions for another 24 hr. Negative controls were achieved under the same conditions, but in the absence of the SEQ ID No. 2 peptide.
To evaluate the enzymatic activity of aconitase, the fibroblasts were then collected and centrifuged in PBS buffer. […]
(§2) The measurement of the enzymatic activity of aconitase was made using the Oxis Bioxytech Aconitase-340 assay kit (Oxis International), according to the following principle: aconitase causes isomerization of the citrate to isocitrate. […] It is the formation of NADPH that is quantified spectrophotometrically at 340 nm. Under the experimental conditions chosen, the rate of NADPH formation is proportional to the quantity of aconitase. The analysis of the kinetics of NADPH appearance enables the concentration of aconitase in the sample to be calculated (in mU/ml)

[2] = tested on: dermal fibroblasts; test: Intracellular ATP synthesis, ATP Bioluminescence Assay Kit HS II; assay type: cell-based; conditions: 1% solution of a 50-ppm peptide solution
Description: The aim of this study was to determine the effect of the SEQ ID No. 1 peptide on mitochondrial activity. It is the ATP produced by the mitochondria that serves as a biochemical marker for this activity.
Protocol: This study was conducted using an ATP Bioluminescence Assay Kit HS II (Roche Applied Science). Dermal fibroblasts were treated with a 1% solution of a 50-ppm solution containing the SEQ ID No. 1 peptide, representative of the peptide family according to the invention, for a period of 1 to 3 hours. At the end of the incubation time, the tubes were emptied of their medium and rinsed with 2 ml of cold PBS before adding 250 μl of a lysing buffer provided in the kit. The cells of each tube were then scraped up and collected in 14-ml tubes. Each tube was rinsed with 2×500 μl of cold PBS, and the whole was collected again in the respective tubes. […] The ATP measurement was performed on these samples: 50 μl of this dilution was placed in a Luma cuvette and 50 μl of […] was added. After 10 seconds, the luminescence reading was begun. The values were standardized relative to the quantity of proteins for each sample. The measurements were made using the Biocounter M2010A Luma®/3M equipment.

[3] = tested on: normal human keratinocytes; test: Ultrastructure of mitochondria by electron microscopy; assay type: cell-based; conditions: 1% solution of a 50-ppm mother-solution for 72 hours
Description: The aim of this study was to determine the action of the SEQ ID No. 2 peptide on mitochondria, by observing the ultrastructures with the electron microscope.
Protocol: Normal human keratinocytes were treated with a 1% solution of a 50-ppm mother-solution of SEQ ID No. 2 peptide for 72 hours. Negative controls were achieved under the same conditions, but in the absence of the said peptide.
The cells were then fixed using Karnovsky's fixative (20 ml of 16% paraformaldehyde/8 ml of 50% glutaraldehyde/25 ml of 0.2 M sodium phosphate buffer/25 ml of water) for 1 hr at ambient temperature, and then left overnight at 4° C. The culture media were scraped into the Karnovsky's fixative and then the cells were centrifuged for 5 minutes at 5000 rpm. The supernatant was isolated and the pellet resuspended in 1 ml of 0.1 M cacodylate. The samples were then kept at 4° C. until their processing for electron microscopy observation.

[4] = molecular target: T1, mitochondrial aconitase (Homo sapiens, UniProt Q99798); test: Enzymatic activity of mitochondrial aconitase in the mitochondrial fraction of fibroblasts, Bioxytech Aconitase-340 kit; assay type: cell-based; conditions: concentration printed as 0.05 ppm
T1 construct: endogenous in cells; host or cells: normal human fibroblasts, mitochondrial fraction (10,000 g pellet)
T1 sequence (Q99798 28-780): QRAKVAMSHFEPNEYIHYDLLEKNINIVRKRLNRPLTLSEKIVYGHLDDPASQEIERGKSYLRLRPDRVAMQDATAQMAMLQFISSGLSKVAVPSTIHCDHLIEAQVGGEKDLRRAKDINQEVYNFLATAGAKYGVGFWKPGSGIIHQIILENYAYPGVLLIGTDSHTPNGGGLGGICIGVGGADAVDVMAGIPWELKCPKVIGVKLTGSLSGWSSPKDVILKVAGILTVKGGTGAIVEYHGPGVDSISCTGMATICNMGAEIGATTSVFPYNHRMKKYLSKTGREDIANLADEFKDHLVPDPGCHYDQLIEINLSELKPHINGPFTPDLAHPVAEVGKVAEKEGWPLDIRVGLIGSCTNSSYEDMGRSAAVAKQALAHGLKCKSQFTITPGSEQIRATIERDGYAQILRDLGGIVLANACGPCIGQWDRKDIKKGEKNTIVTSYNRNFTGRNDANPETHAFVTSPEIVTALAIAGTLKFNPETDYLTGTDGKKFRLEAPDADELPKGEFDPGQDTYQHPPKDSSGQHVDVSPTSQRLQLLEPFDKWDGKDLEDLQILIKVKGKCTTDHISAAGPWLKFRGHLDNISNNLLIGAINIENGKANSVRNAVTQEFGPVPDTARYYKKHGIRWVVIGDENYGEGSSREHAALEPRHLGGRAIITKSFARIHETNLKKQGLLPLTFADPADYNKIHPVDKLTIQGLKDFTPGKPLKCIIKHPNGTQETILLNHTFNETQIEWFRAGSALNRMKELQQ
Description: as §1
[…] After irradiation, the cells were treated under the same conditions for another 24 hr. Negative controls were achieved under the same conditions, but in the absence of the SEQ ID No. 2 peptide.
To evaluate the enzymatic activity of aconitase, the fibroblasts were then collected and centrifuged in PBS buffer. A portion of the cells was then processed to measure total enzymatic activity; another portion was used to isolate the mitochondrial fraction according to the following protocol. […]
as §2

[5] = tested on: human dermal fibroblasts; assay type: cell-based; conditions: 48 h, 0.5 ppm
Description: The aim of this study was to determine the protective effect of the SEQ ID No. 2 peptide with respect to dermal fibroblasts subjected to an oxidative stress caused by oxygenated water (H2O2) in a concentration of 4 mM or 5 mM. For this, cellular viability tests were performed using the MTT technique. Protocol: Human dermal fibroblasts were treated with a 1% solution of a 50-ppm SEQ ID No. 2 peptide for 24 hours, subjected to an oxidative stress caused by 4 mM or 5 mM of H2O2 for 30 minutes, and then cultivated for another 24 hours in the presence of the same concentration of SEQ ID No. 2 peptide. Controls treated with neither the peptide nor H2O2 and controls treated with the peptide alone were achieved under the same conditions. At the end of the experiment, the cells were incubated in a solution containing 0.1 mg/ml of MTT (3-[4,5-dimethylthiazole-2-yl]-2,5-diphenyltetrazolium bromide) according to the protocol described in example 3

[6] = tested on: primary human fibroblasts; test: Comet test (single-cell gel electrophoresis), DNA damage after UVB irradiation; assay type: cell-based; conditions: UVB 100 mJ/cm^2, 0.5 ppm peptide
Description: A study of the cytoprotective effect of SEQ ID No. 2 peptide was made by evaluating the damage caused at the DNA level. This study was done using the comet (or single-cell gel electrophoresis) test, a quick and sensitive micro-electrophoretic technique that enables breaks in the DNA to be visualized and quantified in individual cells.
Protocol: Primary human fibroblasts were seeded in […] dishes. When the cells reached 70% coalescence, they were treated with SEQ ID No. 2 peptide diluted to 1% (starting from a 50-ppm solution) for 24 hours. The cells were then subjected to UVB irradiation at 100 mJ/cm^2, then cultivated in the presence of the peptide for another 24 hours. The dishes not treated with the peptide served as controls. A cellular suspension of 100,000 cells/ml was then achieved, 500 μl were removed, inserted into an agarose solution, and run between slide and cover glass. The cells were lysed in the cold. The DNA was then denatured with an alkaline buffer and subjected to a brief electrophoresis (250 mA for 30 minutes), and stained with propidium iodate. The slides were then observed under a fluorescence microscope. An altered cell sees its DNA stretch toward the anode in proportion to the number of breaks present in the DNA, and it forms a “comet”. The highly degraded DNA is found in the “tail” of the comet. An intact cell remains round, and its DNA is then packed into the area of the comet “head”.
The evaluation of DNA breaks was done using image-analyzer software that enables the percentage of DNA degradation to be determined, by means of a quantitative evaluation of the “tail moment”, a parameter defined as the product of the length of the comet by the percentage of DNA in its distal portion.

Compound: Ser-Cys-Ile-Asn-Ser (SCINS) [SEQ ID No. 5]
- total enzymatic activity of aconitase after UVB irradiation ([1]; UVB 100 mJ/cm^2, peptide treatment before (48 hr) and after (24 hr) irradiation): enabled the observed reduction to be limited

Compound: Ser-Cys-Ile-Asn-Thr (SCINT) [SEQ ID No. 1]
- amount of intracellular ATP compared to the untreated cells ([2]; after 3 hours): clear increase
- increase in the amount of intracellular ATP compared to the untreated cells ([2]; after one hour): 43%

Compound: CC[C@H](C)[C@H](NC(=O)[C@H](CS)NC(=O)[C@@H](N)CO)C(=O)N[C@@H](CC(N)=O)C(=O)N[C@H](C(N)=O)[C@@H](C)O [SEQ ID No. 2, Ser-Cys-Ile-Asn-Thr-NH2] (H-SCINT-NH2; N-terminus assumed)
- ultrastructural characteristics of the organelles [3]: ultrastructural characteristics suggesting an increase in metabolic activity
- enzymatic activity of mitochondrial aconitase [4]: strongly stimulates
- % viability [5]: 121.13%
- reduction of "tail moment" (DNA damage) ([6]; versus UVB control): 25%
- Measurement of "tail moment" ([6]; UVB control 106,563): 80,221
- % of "tail moment" relative to UV control ([6]; UVB control = 100): 75%
- increase in total enzymatic activity of aconitase compared with untreated control cells ([1]; not irradiated, 1% solution of a 50-ppm peptide, n=5): 56.3%
